Experiments:
A23187-induced ear edema = assay: A23187 Ear Edema Model (murine ear edema protocol); format: in vivo, mouse (male CF-1); conditions: 100 μg/ear topical in acetone; A23187 10 μg/ear; 6 h; 6 mm punch biopsy weight
Procedure: To measure anti-inflammatory activities of the investigational compounds the following standard murine ear edema protocol was used. Edema was induced by the calcium ionophore, A23187 (10 μg/ear) [Marks, F., Furstenberger, G., Kownatzki, E., Prostaglandin E Mediated Stimulation of Mouse Epidermis in vivo by Divalent Cation Ionophore A23187 and by Tumor Promotor TPA, Cancer Res., 41, 696-702 (1981)]. Male CF-1 (Charles River) 18-20 grams were used. Investigational compounds (in acetone at 100 μg/ear) were applied to one ear just prior to application of the inflammagen (A23187). Six hours after A23187 application, edema was determined by comparing the weights of 6 mm punch biopsies from control (solvent) and inflammagen-treated ears. Percent inhibition was calculated using standard equations.

Platelet phospholipase C = assay: Platelet Phospholipase C Assay; format: biochemical; conditions: 100,000×g supernatant extract of platelet cells; 3H phosphatidylinositol substrate; mantissa only, the power of ten is printed apart; read-out: PLC IC50
Procedure: Platelet phospholipase C was measured using a 100,000×g supernatant extract of platelet cells as the enzyme preparation. The assay mixture consisted of (in final concentrations): ^3 H myoinositol phosphatidylinositol, ([…], 0.1Ci), CaCl2 (5 mM), Tris acetate buffer (60 mM, pH 4.5-7.5), sodium deoxycholate (2 mg/ml), platelet supernatant protein heated at 100° C. for 5 min (1 mg/ml), all in a total volume of […].
The assay was performed according to the method of Rittenhouse [Rittenhouse, S., Preparation of Selectively Labeled Phosphoinositol and Assay of Phosphoinositol-specific Phospholipase C in Methods in Enzymology, Lands, W. and Smith, W., eds., 86, 3-11 (1982)]. The hydrolysis of substrate to water soluble product was calculated on the basis of the specific activity of the substrate. The activity of the compounds was expressed as the percent inhibition of control (no compound) PLC hydrolysis. […] Arachidonic acid is the precursor of inflammagens such as leukotrienes and prostaglandins which are involved in the mediation of the inflammatory process.

| Compound | IC50 (Platelet phospholipase C) | A23187 % inhibition (A23187-induced ear edema) |
| --- | --- | --- |
| N#Cc1c(N)oc2c1c(Cc1ccccc1)c(O)c1ccccc12 [Example 1, 2-Amino-4-benzyl-3-cyano-5-hydroxynaphtho[1,2-b]furan] | 15 µM | 83% |
| N#Cc1c(N)oc2c1c(Cc1ccccc1F)c(O)c1ccccc12 [Example 2, 2-amino-4-(2-fluoro)benzyl-3-cyano-5-hydroxynaphtho[1,2-b]furan] | 26 µM | 71% |
| N#Cc1c(N)oc2c1c(Cc1ccc(F)cc1)c(O)c1ccccc12 [Example 4, 2-amino-4-(4-fluoro)benzyl-3-cyano-5-hydroxynaphtho[1,2-b]furan] | 120 µM | 58% |
| COc1ccc2c(c1)c(O)c(Cc1ccccc1)c1c(C#N)c(N)oc12 [Example 11, 2-amino-4-benzyl-3-cyano-5-hydroxy-7-methoxynaphtho[1,2-b]furan] | 190 µM | 82% |

More lines, main results first:

| IC50 (Platelet phospholipase C) | Compound | A23187 % inhibition (A23187-induced ear edema) |
| --- | --- | --- |
| 55 µM | COc1ccc2c(O)c(Cc3ccccc3)c3c(C#N)c(N)oc3c2c1 [Example 12, 2-amino-4-benzyl-3-cyano-5-hydroxy-8-methoxynaphtho[1,2-b]furan] |  |
| 56 µM | COc1ccc2c(O)c(Cc3ccccc3F)c3c(C#N)c(N)oc3c2c1 [Example 16, 2-amino-4-(2-fluoro)benzyl-3-cyano-5-hydroxy-8-methoxynaphtho[1,2-b]furan] |  |

From patent US5244917A, “Substituted naphthofurans as anti-inflammatory agents” (The DuPont Merck Pharmaceutical Company, priority 1992, dated 1993)
